Reference: ChEMBL document CHEMBL1158170, “Synthesis, characterization, antioxidant activity and DNA-binding studies of two rare earth(III) complexes with naringenin-2-hydroxy benzoyl hydrazone ligand” (Eur J Med Chem, 2008)

Legend:
[1] = Antioxidant activity at pH 7.4 by hydroxyl radical scavenging assay; format: functional
DNA [2] = assay: Binding affinity to calf thymus DNA by fluorescence spectroscopy; format: nucleic-acid assay; conditions: Bos taurus
DNA [3] = assay: Binding affinity to calf thymus DNA by electronic absorption spectroscopy; format: nucleic-acid assay; conditions: Bos taurus

Row | IC50 [1] | Kq (DNA [2]) | Kb (DNA [3]) | SMILES
1 | 9.6 mM |  |  | OC[C@@H](O)[C@@H](O)[C@H](O)[C@H](O)CO [MANNITOL]
2 |  | 0.93 ×10⁴ /M | 1.6 ×10⁴ /M | O=C(N/N=C1\CC(c2ccc(O)cc2)Oc2cc(O)cc(O)c21)c1ccccc1O (stereo not drawn)
